Patent US20230348424A1, “HETEROCYCLIC COMPOUNDS AND METHODS OF USE” (Schrödinger, Inc., priority 2022, published 2023)
pIC50, pKd: −log10 of the molar value.

Experiments:
[1] = biological target: SOS1:KRAS (G12C) interaction (Homo sapiens (Human), UniProt Q07889); assay: SOS1 KRas(G12C) FRET Assay; format: binding; conditions: 0.5 nM His10-SOS1 (res. 564-1049), 2.5 nM GST-KRAS G12C (res. 1-169), 2 hrs at RT
Method in brief: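 GST-KRAS G12C (res. 1-169) at 2.5 nM and His10-SOS1 (res. 564-1049) at 0.5 nM, final, in PBS with 0.1% BSA, 5 mM MgCl2, 100 mM KF, 5 mM DTT and 0.5% DMSO. After 2 h at RT, FRET read at 665/615 nm and normalized to DMSO and no-SOS1 controls. IC50 by non-linear regression.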

human SOS1 = human SOS1 (Homo sapiens (Human), UniProt Q07889); assay: Surface Plasmon Resonance (SPR) SOS1 Binding Assay; conditions: biotinylated SOS1 (res. 564-1049), Biacore 8K, 25° C., kinetic or steady state fit, 1:1 binding; read-out: hSOS1 KD
human SOS1, sequence (Q07889 564-1049): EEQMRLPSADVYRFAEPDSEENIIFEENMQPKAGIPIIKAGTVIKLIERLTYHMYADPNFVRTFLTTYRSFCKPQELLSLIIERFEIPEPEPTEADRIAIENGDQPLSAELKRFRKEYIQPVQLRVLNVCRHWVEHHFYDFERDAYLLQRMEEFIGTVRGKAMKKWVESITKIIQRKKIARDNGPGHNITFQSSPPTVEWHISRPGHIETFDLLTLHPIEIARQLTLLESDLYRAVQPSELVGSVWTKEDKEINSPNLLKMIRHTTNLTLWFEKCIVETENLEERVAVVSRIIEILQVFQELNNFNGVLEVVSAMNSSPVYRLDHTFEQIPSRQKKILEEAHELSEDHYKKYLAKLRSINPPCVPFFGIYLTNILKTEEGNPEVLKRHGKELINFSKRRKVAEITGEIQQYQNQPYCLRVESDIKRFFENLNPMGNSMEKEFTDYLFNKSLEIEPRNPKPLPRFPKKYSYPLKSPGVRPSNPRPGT
Method in brief: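 Biotinylated Avi-tagged human SOS1 (res. 564-1049) captured on streptavidin chip (~3,000 RU); compounds injected 60 s, dissociation 600 s, at 25° C in Tris pH 8.0 buffer with 5% DMSO. Reference- and blank-subtracted; KD from kinetic or steady-state 1:1 binding fit.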

SOS1:KRAS (G12C) interaction, sequence (Q07889 564-1049, stated change not applied): as the sequence (Q07889 564-1049) above

| pIC50 [1] | pKd (human SOS1) | SMILES |
| --- | --- | --- |
| 8.36 | 8.70 | C[C@@H](NC(=O)c1cn(C2CC3(C2)CC(F)(F)C3)c(=O)cc1N[C@@H]1CCN(C)C[C@@H]1F)c1cccc(C(F)F)c1F [Example 126, N-((R)-1-(3-(difluoromethyl)-2-fluorophenyl)ethyl)-1-(6,6-difluorospiro[3 .3]heptan-2-yl)-4-(((3S,4R)-3-fluoro-1-methylpiperidin-4-yl)amino)-6-oxo-1,6-dihydropyridine-3-carboxamide] |
| 7.41 | 7.77 | Cc1c([C@@H](C)NC(=O)c2cn(C3CCOCC3)c(=O)cc2NCCCN(C)C)cccc1C(F)(F)F [Example 9, (R)-4-((3-(dimethylamino)propyl)amino) -N-(1-(2-methyl-3-(trifluoromethyl)phenyl)ethyl)-6-oxo-1-(tetrahydro-2H-pyran-4-yl)-1,6-dihydropyridine-3-carboxamide] |
| 7.82 | 8.05 | C[C@@H](NC(=O)c1cn(C2(C(F)F)CC2)c(=O)cc1N[C@H]1CCN(C)C[C@H]1F)c1cccc(C(F)F)c1F (single isomer, unassigned) [Example 64] |
